The record followed here is PubChem BioAssay (NCI).

Some test systems named below: LOX IMVI melanoma; SN12C renal; HT29 colon; UACC-257 melanoma; OVCAR-4 ovarian; SK-OV-3 ovarian; M14 melanoma; A549 NSCLC.
Assay in all cases: growth of human tumour cells (NCI), 48 h

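Briefly, cells in 96-well plates were exposed to five compound concentrations for 48 h, and endpoints were estimated by linear interpolation. TGI: concentration producing complete growth inhibition.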 A value given as a limit tells only on which side of the number the result lay.

Regarding `COc1cc([C@H]2c3cc4c(cc3[C@H](NCc3ccc(F)cc3)C3COC(=O)[C@H]32)OCO4)cc(OC)c1O` (stereo partly drawn), the TGI in the test with LOX IMVI melanoma is 17 µM; in the test on SN12C renal, 6.67 µM; in the test with HT29 colon, 27 µM; in the test with UACC-257 melanoma it was 43.6 µM; in the test on OVCAR-4 ovarian, greater than 100 µM; in the test with SK-OV-3 ovarian, 9.78 µM. In the test on M14 melanoma, this molecule yielded a TGI of 13.6 µM.
In the case of `Cc1cc2nc3c(C(OC4OC(CO)C(O)C(O)C4O)C(O)CO)nn(-c4ccc(F)cc4)c3nc2cc1C` (stereo not drawn), the TGI in the test on LOX IMVI melanoma, in the test on SN12C renal, in the test with HT29 colon, with UACC-257 melanoma, in the test with OVCAR-4 ovarian and in the test with SK-OV-3 ovarian was greater than 100 µM throughout. This molecule registered a TGI with M14 melanoma greater than 100 µM.
On to `O=C1Cc2c([nH]c3ccccc23)-c2cc(Br)ccc2N1`, for which the TGI in the test on LOX IMVI melanoma, in the test with SN12C renal, with HT29 colon, with UACC-257 melanoma, in the test with OVCAR-4 ovarian and with SK-OV-3 ovarian was greater than 100 µM in each case. The TGI in the test on M14 melanoma and with A549 NSCLC was greater than 100 µM each time.
Regarding `CCOc1ccccc1NC(=O)C1=C(C)NC(C)=C(C(=O)Nc2ccccc2OCC)C1c1ccc2c(c1)OCO2`, the TGI was greater than 100 µM in the test with LOX IMVI melanoma; greater than 100 µM with SN12C renal; greater than 100 µM with HT29 colon; greater than 100 µM in the test with UACC-257 melanoma; 76.2 µM in the test on OVCAR-4 ovarian; greater than 100 µM with SK-OV-3 ovarian. The results for the TGI in the test on M14 melanoma and in the test on A549 NSCLC were 78.2 µM and greater than 100 µM, respectively.
As for `COc1ccc(/C(C#N)=C2/O/C(=N/N)C(c3ccc(OC)c(OC)c3)C2=O)cc1OC` (stereo not drawn), the TGI in the test on LOX IMVI melanoma, in the test with SN12C renal, with HT29 colon, in the test on UACC-257 melanoma, in the test on SK-OV-3 ovarian and with M14 melanoma was greater than 100 µM each time. This molecule showed a TGI in the test with A549 NSCLC greater than 100 µM.
`NC(=O)C1C(=O)Oc2cccnc21` (stereo not drawn): the TGI in the test with LOX IMVI melanoma, in the test with SN12C renal, in the test with HT29 colon, with UACC-257 melanoma, in the test on SK-OV-3 ovarian and in the test with M14 melanoma was greater than 100 µM throughout. The molecule further returned a TGI in the test on A549 NSCLC greater than 100 µM.
As for `CN(C)CN(C)c1nc(N(C)C)nc(N(C)C)n1`, the TGI in the test on LOX IMVI melanoma, with SN12C renal, in the test on HT29 colon, with UACC-257 melanoma, with OVCAR-4 ovarian and in the test on SK-OV-3 ovarian was greater than 100 µM throughout. Further, the TGI with M14 melanoma and in the test on A549 NSCLC was greater than 100 µM throughout.
Take `O=C(O)c1cc2ccc(Cl)cc2c(O)c1C1=CCCCC1`: the TGI was greater than 100 µM in the test with LOX IMVI melanoma; greater than 100 µM in the test with SN12C renal; greater than 100 µM with HT29 colon; 88.5 µM in the test on UACC-257 melanoma; 57.2 µM in the test with OVCAR-4 ovarian; greater than 100 µM in the test with SK-OV-3 ovarian. In addition, the TGI in the test with M14 melanoma and in the test with A549 NSCLC was greater than 100 µM in each case.
In the case of `COc1ccc(C2C(C(=O)O)=C(COC(C)=O)Oc3cc4c(cc32)OCO4)c(OC)c1` (stereo not drawn), the TGI in the test on LOX IMVI melanoma, in the test with SN12C renal, in the test on HT29 colon, in the test on UACC-257 melanoma, with OVCAR-4 ovarian and in the test with SK-OV-3 ovarian was greater than 100 µM throughout. Further, the TGI in the test on M14 melanoma and with A549 NSCLC was greater than 100 µM in each case.
Regarding `c1ccc2c(c1)n1nnnc1c1nnnn21`, the TGI in the test with LOX IMVI melanoma, in the test on SN12C renal, in the test on HT29 colon, in the test on UACC-257 melanoma, in the test with OVCAR-4 ovarian and in the test on SK-OV-3 ovarian was greater than 100 µM throughout. Besides, the TGI in the test with M14 melanoma and in the test with A549 NSCLC was greater than 100 µM throughout.
`CCOC(=O)C(=O)Nc1nc2ccc(OC)cc2s1`: the TGI in the test on LOX IMVI melanoma, with SN12C renal, with HT29 colon, with UACC-257 melanoma, in the test on OVCAR-4 ovarian and with SK-OV-3 ovarian was greater than 100 µM in each case. For the same molecule, the TGI in the test with M14 melanoma and with A549 NSCLC was greater than 100 µM in each case.
Consider `Cc1c(C(=O)/C=C/c2ccc3c(c2)OCO3)[n+](=O)c2ccccc2n1[O-]`, for which the TGI was 66.3 µM with LOX IMVI melanoma; greater than 100 µM with SN12C renal; 56.4 µM with HT29 colon; greater than 100 µM in the test with UACC-257 melanoma; greater than 100 µM in the test with OVCAR-4 ovarian; 51.2 µM with SK-OV-3 ovarian. Besides, the TGI in the test on M14 melanoma and in the test with A549 NSCLC was greater than 100 µM throughout.
As for `Nc1cccc(C(=O)/C=C/c2ccccc2O)c1`, the TGI in the test with LOX IMVI melanoma, with SN12C renal, in the test with HT29 colon, in the test with UACC-257 melanoma, in the test on SK-OV-3 ovarian and in the test on M14 melanoma was greater than 100 µM each time. Moreover, the TGI in the test on A549 NSCLC is greater than 100 µM.
As for `O=C(Cn1ccnc1[N+](=O)[O-])NCc1ccc(F)cc1`, the TGI with LOX IMVI melanoma, in the test with SN12C renal, with HT29 colon, in the test on UACC-257 melanoma, in the test with OVCAR-4 ovarian and in the test on SK-OV-3 ovarian was greater than 100 µM in each case. Further, the TGI with M14 melanoma and with A549 NSCLC was greater than 100 µM throughout.
Take `CNC(=O)N(CCCCC(NC(C)=O)C(=O)NCc1ccccc1)Cc1ccccc1` (stereo not drawn): the TGI with LOX IMVI melanoma, in the test with SN12C renal, with HT29 colon, in the test on UACC-257 melanoma, with OVCAR-4 ovarian and in the test on SK-OV-3 ovarian was greater than 100 µM throughout. Also, the TGI in the test on M14 melanoma and with A549 NSCLC was greater than 100 µM each time.
For the molecule `Cc1cccc(NC(=O)CSc2nnc(-c3ccc(N=Cc4ccc(Cl)cc4)cc3)o2)c1`, the TGI in the test with LOX IMVI melanoma, in the test on SN12C renal, in the test with HT29 colon, with UACC-257 melanoma, in the test with OVCAR-4 ovarian and in the test with SK-OV-3 ovarian was greater than 100 µM throughout. Further, the TGI in the test on M14 melanoma and in the test with A549 NSCLC was greater than 100 µM each time.
